The record followed here is ChEMBL document CHEMBL5154917 (J Med Chem, 2022).

The subject of data set [1] is MKN-1. The experiment in a line: Antiproliferative activity against human MKN-1 cells assessed as cell growth inhibition incubated for 72 hrs by CCK-8 assay. The following applies: MKN-1, 72 h.
A further data set concerns HT-29. Briefly: Antiproliferative activity against human HT-29 cells assessed as cell growth inhibition incubated for 72 hrs by CCK-8 assay. The following applies: HT-29, 72 h. (In general: Tetrazolium dyes change colour on reduction, which living cells bring about.)
A short description of data set [2]: Aqueous solubility of the compound. The format is physicochemical. The following applies: buffer.
Data set [3] can be described thus: Toxicity in CB17-SCID mouse xenografted with human MKN-1 cells assessed as side effects at 25 mg/kg, ip qd for 18 consecutive days. The format is organism-based. The following applies: in vivo, 432 h, time 18 day. A general note: Xenograft models place foreign cells or tissue in a host animal.
For data set [4], the species on record is Homo sapiens. Briefly: Binding affinity to human partial length FLT3 ITD F691L mutant expressed in mammalian expression system assessed as residual activity at 1 uM by KINOMEscan assay relative to control.
For data set [5], the target named is T1, Serine/threonine-protein kinase RIO1 (Homo sapiens) (UniProt Q9BRS2).
T1 sequence (whole entry): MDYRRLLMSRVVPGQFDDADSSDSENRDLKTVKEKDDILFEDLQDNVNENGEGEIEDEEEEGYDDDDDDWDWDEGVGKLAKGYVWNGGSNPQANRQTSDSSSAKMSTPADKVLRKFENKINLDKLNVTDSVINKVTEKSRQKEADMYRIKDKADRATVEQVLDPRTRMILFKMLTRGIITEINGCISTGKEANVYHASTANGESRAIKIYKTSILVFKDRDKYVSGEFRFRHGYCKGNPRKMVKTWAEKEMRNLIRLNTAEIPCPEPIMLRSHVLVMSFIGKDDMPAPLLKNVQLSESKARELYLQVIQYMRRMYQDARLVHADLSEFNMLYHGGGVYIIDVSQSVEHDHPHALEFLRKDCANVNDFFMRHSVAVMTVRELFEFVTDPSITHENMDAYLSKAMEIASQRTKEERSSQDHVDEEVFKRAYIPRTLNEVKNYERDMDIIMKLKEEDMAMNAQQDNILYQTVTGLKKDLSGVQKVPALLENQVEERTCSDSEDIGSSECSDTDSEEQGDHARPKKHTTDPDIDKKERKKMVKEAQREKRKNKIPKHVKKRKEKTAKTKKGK
Briefly: Binding affinity to wild-type human full length RIOK1 (M1 to K568 residues) expressed in bacterial expression system assessed as residual activity at 1 uM by KINOMEscan assay relative to control.

The target in data set [6] is T2, Serine/threonine-protein kinase RIO3 (Homo sapiens) (UniProt O14730).
T2 sequence (whole entry): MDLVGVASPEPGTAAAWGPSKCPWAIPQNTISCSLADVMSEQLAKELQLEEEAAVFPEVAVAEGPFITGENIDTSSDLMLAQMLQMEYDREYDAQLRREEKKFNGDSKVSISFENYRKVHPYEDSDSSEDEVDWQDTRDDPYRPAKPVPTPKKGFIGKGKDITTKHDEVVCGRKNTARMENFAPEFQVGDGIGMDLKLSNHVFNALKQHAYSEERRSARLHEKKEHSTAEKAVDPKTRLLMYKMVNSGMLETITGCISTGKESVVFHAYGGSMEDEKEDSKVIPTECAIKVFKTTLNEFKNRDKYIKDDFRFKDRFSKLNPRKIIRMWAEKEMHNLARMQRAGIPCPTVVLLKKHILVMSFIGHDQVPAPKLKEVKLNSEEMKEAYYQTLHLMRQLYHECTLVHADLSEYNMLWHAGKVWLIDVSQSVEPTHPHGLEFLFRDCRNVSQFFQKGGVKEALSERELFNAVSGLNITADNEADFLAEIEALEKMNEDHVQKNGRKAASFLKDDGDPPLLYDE
Briefly: Binding affinity to RIOK3 in human MKN-1 cells assessed as negative shift in melting temperature at 5 uM incubated for 3 hrs followed by heat treatment at 52 to 62 degC for 3 mins by CETSA. The format is cell-based. The following applies: time 183.0 min.

Data set [7] has as its system MKN-1. Briefly: Antitumor activity against human MKN-1 cells xenografted in CB17-SCID mouse assessed as tumor growth inhibition at 25 mg/kg, ip qd for 18 consecutive days and measured once every 2 days relative to control. The format is functional. The following applies: MKN-1, 432 h, time 18 day, read-out: TGI.
The subject of data set [8] is T3, Receptor-type tyrosine-protein kinase FLT3 (Homo sapiens), P36888 [D835V].
T3 sequence (whole entry): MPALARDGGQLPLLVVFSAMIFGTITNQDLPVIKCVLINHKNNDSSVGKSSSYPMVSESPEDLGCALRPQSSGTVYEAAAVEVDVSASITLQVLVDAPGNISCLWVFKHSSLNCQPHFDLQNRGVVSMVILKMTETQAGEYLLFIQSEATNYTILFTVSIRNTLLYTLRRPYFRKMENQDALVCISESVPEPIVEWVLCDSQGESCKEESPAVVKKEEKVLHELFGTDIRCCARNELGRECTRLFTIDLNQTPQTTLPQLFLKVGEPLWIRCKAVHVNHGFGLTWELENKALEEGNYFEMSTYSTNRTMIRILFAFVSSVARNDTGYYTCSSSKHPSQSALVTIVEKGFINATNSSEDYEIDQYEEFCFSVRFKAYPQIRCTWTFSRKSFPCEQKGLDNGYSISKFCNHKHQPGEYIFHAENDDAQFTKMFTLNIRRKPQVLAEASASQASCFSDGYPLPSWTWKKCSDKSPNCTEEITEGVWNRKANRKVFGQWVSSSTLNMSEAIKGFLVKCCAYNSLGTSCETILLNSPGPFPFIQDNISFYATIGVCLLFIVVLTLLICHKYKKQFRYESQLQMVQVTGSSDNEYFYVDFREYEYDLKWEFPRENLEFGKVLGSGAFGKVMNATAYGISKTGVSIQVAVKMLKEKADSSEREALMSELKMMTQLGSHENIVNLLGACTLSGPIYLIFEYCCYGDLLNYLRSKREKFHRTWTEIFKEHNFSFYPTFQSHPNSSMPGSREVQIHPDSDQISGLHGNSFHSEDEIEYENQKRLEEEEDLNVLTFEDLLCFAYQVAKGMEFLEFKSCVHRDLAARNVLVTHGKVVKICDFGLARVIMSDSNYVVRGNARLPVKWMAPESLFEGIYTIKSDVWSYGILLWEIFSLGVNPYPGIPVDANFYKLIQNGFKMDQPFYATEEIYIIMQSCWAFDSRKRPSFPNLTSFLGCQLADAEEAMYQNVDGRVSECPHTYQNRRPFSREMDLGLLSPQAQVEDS
Briefly: Binding affinity to human partial length FLT3 D835V mutant (V592 to Y969 residues) expressed in mammalian expression system assessed as residual activity at 1 uM by KINOMEscan assay relative to control.

In data set [9] the target is T1, Serine/threonine-protein kinase RIO1 (Homo sapiens). Briefly: Binding affinity to RIOK1 in human MKN-1 cells assessed as negative shift in melting temperature at 5 uM incubated for 3 hrs followed by heat treatment at 52 to 62 degC for 3 mins by CETSA. The format is cell-based. The following applies: time 183.0 min.
Data set [10] can be described thus: Cmax in Sprague-Dawley rat administered orally. The format is ADME. Set-up: route po. The note with it: in vivo, po.
The nature of data set [11]: Solubility of compound in organic solvents. The format is physicochemical.
Data set [12] has as its target T2, Serine/threonine-protein kinase RIO3 (Homo sapiens). The experiment in a line: Binding affinity to wild-type human full length RIOK3 (M1 to E519 residues) expressed in bacterial expression system assessed as residual activity at 1 uM by KINOMEscan assay relative to control.
Data set [13] in a line: Oral bioavailability in Sprague-Dawley rat. The format is ADME, organism-based. The following applies: in vivo.
Data set [14] in a line: Toxicity in CB17-SCID mouse xenografted with human MKN-1 cells assessed as mortality at 25 mg/kg, ip qd for 18 consecutive days. The format is organism-based. The following applies: in vivo, 432 h, time 18 day.
Data set [15] is filed under the species Homo sapiens. Briefly: Binding affinity to human partial length FLT3 ITD D835V mutant expressed in mammalian expression system assessed as residual activity at 1 uM by KINOMEscan assay relative to control.

Activity calls are given as the source filed them. The rule behind the calls is not given here.

`Cc1ccnc(NC(=O)Cc2ccc3ccccc3c2)c1`: the IC50 in the data set on MKN-1 [1] and in the data set with HT-29 was more than 8 µM throughout.

Regarding `COc1ccc(-c2ccc3[nH]c(=O)c4nnn(-c5ccccc5)c4c3c2)cn1`, the IC50 in the data set with MKN-1 [1] and with HT-29 was more than 8 µM in each case.

Take `COc1ccc(-c2ccc3[nH]c(=O)c4nnn(-c5ccc(N6CCNCC6)c(C(F)(F)F)c5)c4c3c2)cn1`: the solubility result in data set [2] and in [11] was “Insoluble” each time. Moreover, the IC50 (as a rule, the midpoint of a concentration-inhibition curve) turned out to be 0.61 µM in the data set with MKN-1 [1] and 0.38 µM in the data set with HT-29. The Activity entry in data set [3] was “Non-Toxic”; in the data set listed under Homo sapiens [4], 3.6%; in data set [5], 100%; in data set [8] it was 28%; in data set [12] it was 87%; in data set [14], “Non-Toxic”. Further, the Activity in the data set listed under Homo sapiens [15] was 4%. For the same compound, the outcome in [6] and in data set [9] was Active. In addition, the inhibition in vivo at 25 mg/kg in the data set with MKN-1 [7] was 30.9%. The Cmax – broadly, the highest concentration seen after dosing – in data set [10] came out at 13 ng/mL. Moreover, in data set [13], the bioavailability – broadly, the share of a dose that reaches the circulation, judged against a reference dose that is usually intravenous – worked out at 3.06%.
